Drawing on PMC7269146, “Jingzhaotoxin-X, a gating modifier of Kv4.2 and Kv4.3 potassium channels purified from the venom of the Chinese tarantula Chilobrachys jingzhao” (The Journal of Venomous Animals and Toxins Including …, 2020), this text covers inhibition for 1 molecule.

The experiment deals with T1, Kv4.2 (Rattus norvegicus, UniProt Q63881).
T1 construct: expressed in transfected cells; host or cells: HEK293t
T1 sequence (Q63881 1-630): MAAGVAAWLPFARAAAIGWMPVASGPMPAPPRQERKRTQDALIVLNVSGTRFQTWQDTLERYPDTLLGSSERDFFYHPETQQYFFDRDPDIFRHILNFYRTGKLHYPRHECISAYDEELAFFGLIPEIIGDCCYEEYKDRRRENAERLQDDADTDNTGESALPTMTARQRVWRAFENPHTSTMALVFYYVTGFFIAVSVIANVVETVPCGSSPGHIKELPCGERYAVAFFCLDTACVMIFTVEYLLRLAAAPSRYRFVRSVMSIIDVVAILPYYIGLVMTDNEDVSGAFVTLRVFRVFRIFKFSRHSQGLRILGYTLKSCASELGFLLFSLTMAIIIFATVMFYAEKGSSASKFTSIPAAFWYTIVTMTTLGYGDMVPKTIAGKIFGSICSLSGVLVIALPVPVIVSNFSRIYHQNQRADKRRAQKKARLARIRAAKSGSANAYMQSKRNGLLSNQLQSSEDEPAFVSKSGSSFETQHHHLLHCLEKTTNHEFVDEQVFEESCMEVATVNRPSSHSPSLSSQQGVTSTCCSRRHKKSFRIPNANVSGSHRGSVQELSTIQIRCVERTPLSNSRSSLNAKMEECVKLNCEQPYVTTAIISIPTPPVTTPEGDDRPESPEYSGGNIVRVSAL
In words: microelectrode voltage-clamp, Xenopus laevis oocytes, Kv4.2. The format is cell-based. The note with it: +20 mV from -90 mV, n = 5, read-out: inhibition of Kv4.2 current. From the text: Rat cDNA genes encoding Kv4.2 (Accession: NM_031730.2) and Kv4.3 (Accession: AB003587.1) were subcloned to vector pcDNA3.1. In addition, human cDNA genes encoding Nav1.7 (Accession: DQ857292.1) and Nav1.5 (Accession: AB158469.2) were subcloned to vectors pcDNA3.1-mod and pcDNA3.1, separately. Then, Kv4.2, Kv4.3, Nav1.5 and Nav1.7 constructs were transiently transfected into the human embryonic kidney 293t (HEK293t) cells using lipofectamine 2000 (Invitrogen, USA) in accordance with manufacturer protocols. Thereafter, HEK293 cells were inoculated within Dulbecco’s modified Eagle’s medium (DMEM) containing 10% fetal bovine serum (FBS) at 5% CO2 and 37°C. The Kv4.3 channel and the Kv4.2 counterpart were then transfected in the absence of β subunit. Subsequently, cells were incubated with a DNA-lipofectamine mixture (one reporter plasmid for green fluorescence protein and channel constructs) for 4-6 h, and were washed with the fresh medium.
Briefly, plasmids were linearized, and transcription was carried out according to the standardized protocol. Afterwards, the capped cRNAs that encoded the related ion channels were prepared. […]

Where a SMILES comes first, the peptide text is derived from it. Bridges are numbered along the chain shown (N, C = ends).

Turning to `CC(C)C[C@@H]1NC(=O)[C@H](CCCCN)NC(=O)[C@H](Cc2ccc(O)cc2)NC(=O)[C@@H]2CSSC[C@@H]3NC(=O)[C@H](Cc4ccc(O)cc4)NC(=O)[C@H](Cc4ccccc4)NC(=O)CNC(=O)[C@H](C)NC(=O)[C@H](CSSC[C@H](NC(=O)[C@@H](N)CC(C)C)C(=O)N[C@@H](CO)C(=O)N[C@@H](CCCNC(=N)N)C(=O)N[C@@H](CCC(=O)O)C(=O)NCC(=O)N[C@@H](CCC(=O)O)C(=O)N[C@@H](Cc4ccccc4)C(=O)N2)NC(=O)[C@H](CSSC[C@@H](C(=O)N[C@@H](Cc2ccc(O)cc2)C(=O)N[C@@H](CCCNC(=N)N)C(=O)N[C@@H](CC(N)=O)C(=O)O)NC(=O)[C@H](Cc2c[nH]cn2)NC(=O)[C@H](CC(C)C)NC(=O)[C@H](C(C)C)NC(=O)[C@H](Cc2ccccc2)NC(=O)[C@H](C)NC(=O)[C@H](CCCCN)NC3=O)NC(=O)[C@H](CCCCN)NC(=O)[C@H](CCCNC(=N)N)NC1=O` [JZTX-X, Jingzhaotoxin-X] (H-LCSREGEFCYKLRKCCAGFYCKAFVLHCYRN-OH; disulfide 2-16, 9-21, 15-28; N-terminus assumed), the inhibition at 0.1 µM (0.1 μM (100 nM)) worked out at 57.8 ± 4.6%. Besides, where the note is “0.5 μM (500 nM)”, the inhibition at 0.5 µM is 83.8 ± 5.1%.

One may read the inhibition as the drop in the measured response relative to a control, in per cent.
